According to the CheMixHub drug solubility set:

Assay: xn = mol fraction of the nth substance listed, in the solute-free solvent

Nc1ncn(C2OC(CO)C(O)C2O)c(=O)n1 (configuration not stated) + O + CCO
solubility (g/100 g solution)
Conditions	278.15 K	283.15 K	288.15 K	293.15 K	298.15 K	303.15 K	308.15 K	313.15 K	318.15 K
x2 = 0.3899	0.0889	0.101	0.115	0.133	0.153	0.177	0.206	0.238	0.275
x2 = 0.6302	0.186	0.217	0.255	0.298	0.349	0.406	0.469	0.538	0.618
x2 = 0.7932	0.302	0.369	0.443	0.524	0.614	0.709	0.813	0.924	1.05
x2 = 0.9109	0.498	0.588	0.704	0.836	0.976	1.12	1.28	1.46	1.65

Nc1ncn(C2OC(CO)C(O)C2O)c(=O)n1 (configuration not stated) + O + CC(C)O
solubility (g/100 g solution)
Conditions	278.15 K	283.15 K	288.15 K	293.15 K	298.15 K	303.15 K	308.15 K	313.15 K	318.15 K
x2 = 0.4546	0.0657	0.0837	0.104	0.126	0.152	0.187	0.227	0.276	0.336
x2 = 0.6897	0.152	0.192	0.238	0.293	0.351	0.421	0.502	0.601	0.714
x2 = 0.8334	0.275	0.349	0.429	0.516	0.613	0.717	0.851	0.997	1.17
x2 = 0.9303	0.455	0.57	0.693	0.836	0.979	1.14	1.31	1.52	1.75

Nc1cccc2c1CN(C1CCC(=O)NC1=O)C2=O (configuration not stated) + CO + CCOC(C)=O
solubility (g/100 g solution)
Conditions	273.15 K	278.15 K	283.15 K	288.15 K	293.15 K	298.15 K	303.15 K	308.15 K	313.15 K	318.15 K
x2 = 0.4074	0.261	0.29	0.318	0.352	0.389	0.429	0.475	0.525	0.581	0.642
x2 = 0.647	0.353	0.398	0.443	0.489	0.536	0.592	0.648	0.714	0.786	0.863
x2 = 0.8048	0.354	0.393	0.437	0.491	0.546	0.608	0.679	0.76	0.852	0.952
x2 = 0.9166	0.352	0.385	0.426	0.481	0.536	0.599	0.67	0.755	0.854	0.959

c1ccc2c(c1)CCc1ccccc1N2 + CC(C)O + O
solubility (g/100 g solution)
Conditions	283.15 K	288.15 K	293.15 K	298.15 K	303.15 K	308.15 K	313.15 K	318.15 K	323.15 K	328.15 K
x2 = 0.03176	0.0176	0.0251	0.0346	0.0488	0.0604	0.0841	0.111	0.148	0.194	0.252
x2 = 0.0697	0.0729	0.101	0.136	0.186	0.24	0.32	0.411	0.527	0.674	0.851
x2 = 0.1134	0.12	0.164	0.22	0.296	0.38	0.499	0.636	0.808	1.02	1.28
x2 = 0.1667	0.119	0.156	0.212	0.286	0.384	0.504	0.625	0.779	0.979	1.22
x2 = 0.2299	0.126	0.162	0.214	0.281	0.369	0.484	0.601	0.762	0.947	1.18
x2 = 0.3101	0.114	0.153	0.205	0.27	0.348	0.452	0.575	0.726	0.915	1.14
x2 = 0.4103	0.132	0.176	0.237	0.308	0.396	0.511	0.648	0.814	1.02	1.27
x2 = 0.5463	0.168	0.221	0.295	0.38	0.487	0.622	0.771	0.958	1.18	1.47
x2 = 0.7321	0.172	0.219	0.296	0.374	0.48	0.613	0.778	0.975	1.22	1.51

c1ccc2c(c1)CCc1ccccc1N2 + CCO + O
solubility (g/100 g solution)
Conditions	283.15 K	288.15 K	293.15 K	298.15 K	303.15 K	308.15 K	313.15 K	318.15 K	323.15 K	328.15 K
x2 = 0.04179	0.0221	0.0315	0.0433	0.0609	0.0803	0.109	0.143	0.188	0.245	0.315
x2 = 0.08913	0.114	0.158	0.211	0.288	0.371	0.489	0.626	0.801	1.02	1.28
x2 = 0.1443	0.214	0.292	0.388	0.52	0.666	0.866	1.1	1.39	1.75	2.17
x2 = 0.207	0.24	0.326	0.432	0.576	0.738	0.954	1.21	1.53	1.91	2.38
x2 = 0.2814	0.229	0.311	0.414	0.548	0.706	0.909	1.15	1.46	1.82	2.27
x2 = 0.3697	0.231	0.313	0.417	0.55	0.71	0.909	1.15	1.46	1.82	2.26
x2 = 0.4785	0.269	0.363	0.465	0.612	0.779	1	1.28	1.62	2.02	2.49
x2 = 0.6105	0.316	0.423	0.561	0.728	0.94	1.19	1.5	1.89	2.33	2.88
x2 = 0.7769	0.374	0.498	0.659	0.848	1.09	1.37	1.73	2.16	2.66	3.28
